Measured values as given in patent US6517808B1, “Methods for boron delivery to mammalian tissue” (The Regents of the University of California, priority 1993, dated 2003).
Each block holds one substance with its values, some of them ahead of it.

Legend:
EMT6 tumors = experiment: murine biodistribution study (boron concentration in tissues by ICP-AES); type: in vivo, BALB/c mice
Description: The concentration of boron can be determined by inductively coupled plasma atomic emission spectroscopy (ICP-AES).
All murine biodistribution studies utilized female BALB/c mice (16-20 g), with EMT6 tumors implanted in the right flank 7-10 days prior to the experiment. […] Injections of liposome emulsions (200 μl) were made in the tail vein. Prior to sacrifice, each mouse was anesthetized with halothane and bled into heparinized syringes via cardiac puncture. The blood was then placed into tared cryogenic tubes. While under anesthesia, the mice were euthanized via cervical dislocation. The tumor, liver, and spleen were dissected and also placed in tared cryogenic tubes. Blood and tissues were stored frozen until analyzed.
Biodistributions are plotted as boron concentration in micrograms of boron per gram of tissue on the Y axis and time in hours on the X axis. In general, four tissues are analyzed: tumor and blood because of their therapeutic interest, and liver and spleen because these tissues are known to competitively bind liposomes in vivo.

[1] = chemical stability of borane anions towards water / moisture; type: physicochemical
Text: The cleanest reaction is observed employing [Ph3PMe][B10H10] in CH2Cl2, but the reaction can be used with several salts of [B10H10]^2− including preferably cesium. tetramethylammonium and triethylammoniuim and with other solvents such as acetonitrile and tetrahydrofuran. […] The substituted boron is indicated by a high field resonance at −43.8 ppm (relative to BF3. Et2O) which is a singlet in the proton coupled spectrum. [Ph3PMe][2-B10H9CO] may be isolated a a light tan solid in 85% yield, or the reaction mixture may be used directly in further reactions. […] [Ph3PMe]2[2-B10H9CO2H] has been confirmed by crystallographic analysis.
A very useful transformation of [2-B10H9CO]^− occurs from its reaction with azide ion in acetonitrile. The carbonyl undergoes a Curtius-type rearrangement to form the isocyanate [2-B10H9NCO]^2−, indicated by an infrared absorption at 2304 cm^−1. […] The [2-B10H9CO]^− ion therefore offers a high-yield route to the production of many boron-rich species for boron neutron capture therapy. Detailed protocols of preparing certain of these species is as follows: […]

Substance: Na3B20H17NH3 [free Na3B20H17NH3]
- initial distribution (accumulation) in the tumor (EMT6 tumors; FIG. 10, free, not liposome-encapsulated, injected in buffer): about 8 ppm

- sensitivity to moisture ([1]; in the solid state or in solution): relatively insensitive to moisture
Substance: [2-B10H9CO]^−

Substance: Na2B10H10 [reference compound]
- tumor uptake begins at (initial tumor boron concentration) (EMT6 tumors; FIG. 4, BALB/c mice bearing EMT6 tumors, tail vein injection): 10 µg/g

- stability in acidic media ([1]; acidic media): rapidly hydrolyzed
- stability in neutral aqueous solution ([1]; neutral aqueous solution): stable
Substance: [2-B10H9NCO]^2−
